pIC50: −log10 of the molar value.
Tests used:
HL-60 = assay: Cytotoxicity against human HL60 cells assessed as cell viability after 72 hrs by CCK8 assay; assay type: functional, cell-based; settings: HL-60, 72 h
Enterovirus = assay: Antiviral activity against EV71 infected in african green monkey Vero cells assessed as reduction in virus-induced cytopathic effect after 72 to 96 hrs by CCK8 assay; assay type: functional, organism-based; settings: Enterovirus, 71, Vero
HeLa = assay: Cytotoxicity against human HeLa cells assessed as cell viability after 72 hrs by CCK8 assay; assay type: functional, cell-based
[1] = Cytotoxicity against human HuH7 cells assessed as cell viability after 72 hrs by CCK8 assay; assay type: functional, cell-based; settings: Huh-7, 72 h
[2] = system: Mycobacterium tuberculosis; assay: Antituberculosis activity against Mycobacterium tuberculosis H37Ra after 3 days by autoluminescent assay; assay type: functional, organism-based
MOLT-4 = assay: Cytotoxicity against human MOLT4 cells assessed as cell viability after 72 hrs by CCK8 assay; assay type: functional, cell-based; settings: MOLT-4, 72 h
MCF7 = assay: Cytotoxicity against human MCF7 cells assessed as cell viability after 72 hrs by CCK8 assay; assay type: functional, cell-based; settings: MCF7, 72 h
U-937 = assay: Cytotoxicity against human U937 cells assessed as cell viability after 72 hrs by CCK8 assay; assay type: functional, cell-based; settings: U-937, 72 h
K562 = assay: Cytotoxicity against human K562 cells assessed as cell viability after 72 hrs by CCK8 assay; assay type: functional, cell-based; settings: K562, 72 h
A549 = assay: Cytotoxicity against human A549 cells assessed as cell viability after 72 hrs by CCK8 assay; assay type: functional, cell-based; settings: A549, 72 h
[3] = Cytotoxicity against human BGC823 cells assessed as cell viability after 72 hrs by CCK8 assay; assay type: functional, cell-based; settings: BGC-823, 72 h
[4] = Antiviral activity against Influenza A virus A/Hong Kong/8/68 H3N2 infected in MDCK cells assessed as reduction in virus-induced cytopathic effect after 3 days by CCK8 assay; assay type: functional, cell-based, Influenza A virus (A/Hong Kong/8/1968([…])); settings: 72 h
NCI-H1975 = assay: Cytotoxicity against human NCI-H1975 cells assessed as cell viability after 72 hrs by CCK8 assay; assay type: functional, cell-based; settings: NCI-H1975, 72 h

| Structure (SMILES) | pIC50 (HL-60) | pIC50 (Enterovirus) | pIC50 (HeLa) | pIC50 [1] | IC50 [2] | pIC50 (MOLT-4) | pIC50 (MCF7) | pIC50 (U-937) | pIC50 (K562) | pIC50 (A549) | pIC50 [3] | pIC50 [4] | pIC50 (NCI-H1975) |
| --- | --- | --- | --- | --- | --- | --- | --- | --- | --- | --- | --- | --- | --- |
| C[C@]1(COC(=O)c2ccc([N+](=O)[O-])cc2)CCC[C@@]2(C)[C@H]1[C@H](O)C=C1C(=O)OC[C@@]12O | 5.61 | 5.03 | 5.21 | 5.48 | Not Active | 5.62 | 5.37 | 5.71 | 5.36 | 5.62 | 5.63 | 4.77 | 5.68 |
| CC(/C=C/C(=O)NO)=C\[C@@H](C)C(=O)c1ccc(N(C)C)cc1 [TRICHOSTATIN] | 7.52 | 6.22 | 7.00 | 7.05 | Not Active | – | – | 7.30 | 6.80 | – | 7.10 | 8.10 | 7.05 |
| C[C@]1(CO)CCC[C@@]2(C)[C@H]1[C@H](OC(=O)c1ccc([N+](=O)[O-])cc1)C=C1C(=O)OC[C@@]12O | 5.63 | 4.30 | 5.20 | 5.63 | Not Active | 5.68 | 5.22 | 5.40 | 5.32 | 5.54 | 5.56 | 4.30 | 5.33 |

From ChEMBL document CHEMBL3580538, “Cytotoxic and antiviral nitrobenzoyl sesquiterpenoids from the marine-derived fungus Aspergillus ochraceus Jcma1F17” (Medchemcomm, 2014)
